In patent US10071998B2, “Iminothiadiazine dioxides bearing an amine-linked substituent as BACE inhibitors, compositions, and their use” (Merck Sharp & Dohme Corp., priority 2015, dated 2018):
Where two headings read alike, the source gives them in different places.

Legend:
[1] = molecular target: purified human autoBACE-2 (Homo sapiens (Human), UniProt Q9Y5Z0); experiment: BACE-2 Assay (BACE-HTRF assay); type: biochemical; conditions: Table 1; Ki calculated from IC50 with Cheng-Prusoff equation; read-out: BACE2 Ki
Sequence of purified human autoBACE-2 (Q9Y5Z0 63-473): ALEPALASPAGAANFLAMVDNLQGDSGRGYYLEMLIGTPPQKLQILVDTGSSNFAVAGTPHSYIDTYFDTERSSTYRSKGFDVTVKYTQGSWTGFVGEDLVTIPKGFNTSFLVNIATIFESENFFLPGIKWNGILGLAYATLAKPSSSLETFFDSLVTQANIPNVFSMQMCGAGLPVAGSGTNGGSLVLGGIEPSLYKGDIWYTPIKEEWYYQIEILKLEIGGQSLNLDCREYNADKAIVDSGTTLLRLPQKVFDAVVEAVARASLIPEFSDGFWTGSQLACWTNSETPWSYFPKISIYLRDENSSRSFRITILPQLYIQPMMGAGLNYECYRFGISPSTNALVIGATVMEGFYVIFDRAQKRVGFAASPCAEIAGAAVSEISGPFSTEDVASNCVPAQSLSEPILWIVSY
Protocol: Inhibitor IC50s, at purified human autoBACE-2 are determined in a time-resolved endpoint proteolysis assay that measures hydrolysis of the QSY7-EISEVNLDAEFC-Eu-amide FRET peptide substrate (BACE-HTRF assay). BACE-mediated hydrolysis of this peptide results in an increase in relative fluorescence (RFU) at 620 nm after excitation with 320 nm light. Inhibitor compounds, prepared at 3× the desired final concentration in 1× BACE assay buffer (20 mM sodium acetate pH 5.0, 10% glycerol, 0.1% Brij-35) supplemented with 7.5% DMSO are pre-incubated with an equal volume of autoBACE-2 enzyme diluted in 1×BACE assay buffer (final enzyme concentration 1 nM) in black 384-well NUNC plates for 30 minutes at 30° C. The assay is initiated by addition of an equal volume of the QSY7-EISEVNLDAEFC-Eu-amide substrate (200 nM final concentration, Km=8 μM […] for autoBACE-2) prepared in 1×BACE assay buffer supplemented with 7.5% DMSO and incubated for 90 minutes at 30° C. DMSO is present at 5% final concentration in the assay. Following laser excitation of sample wells at 320 nm, the fluorescence signal at 620 nm is collected for 400 ms following a 50 μs delay on a RUBYstar HTRF plate reader (BMG Labtechnologies). Raw RFU data is normalized to maximum (1.0 nM BACE/DMSO) and minimum (no enzyme/DMSO) RFU values. IC50 values are determined by nonlinear regression analysis (sigmoidal dose response, variable slope) of percent inhibition data with minimum and maximum values set to 0 and 100 percent respectively. Similar IC50s are obtained when using raw RFU data. The Ki values are calculated from the IC50 using the Cheng-Prusoff equation.

[2] = test system: CSF levels of Aβ1-40 (Aβ40); experiment: Aβ Reduction In Vivo (rat CSF Aβ40); conditions: 3 h, 10 mg/kg oral gavage
Protocol: Assay 3: Aβ Reduction In Vivo
The in vivo efficacy and/or potency of BACE inhibitors (test compounds) can be evaluated using a variety of animal models, including mouse, rat, dog, and monkey, and these animals can be wild type, transgenic, or gene knockout animals.
Generally, animals are administered (by oral gavage, intravenous injection, or by other suitable route) a test compound in doses ranging from, for example, 0.1 mg/kg (mg of compound per kg of animal body weight) to 100 mg/kg formulated in vehicles, such as cyclodextrin, phosphate buffer, hydroxypropyl methylcellulose or other suitable vehicles. One to twenty-four hours following the administration of compound, animals are sacrificed, and tissues (for example, brain, cerebrospinal fluid (CSF), and/or plasma) are collected for analysis of Aβ levels and/or test compound concentrations (Dovey et al., 2001, Journal of Neurochemistry, 76, 173-181). Tissue samples are processed appropriately and then analyzed for the presence of Aβ by specific sandwich ELISA assays based on electrochemiluminescence (ECL) technology.
For example, in the following assay for which data are reported below, male CD IGS rats (body weight approximately 120 g, Charles River Laboratories, Kingston, N.Y.) were used to asses lowering of CSF levels of Aβ1-40 (Aβ40) in the presence of compounds of the invention. At time 0, animals were administered by oral gavage a test compound at a dose of 10 mg/kg in 20% hydroxypropyl-β-cyclodextrin (dosing volume 5 mL/kg). A separate group of animals received 20% hydroxypropyl-β-cyclodextrin alone to serve as the vehicle control group. Three hours after administration, the rats were euthanized with excess CO2. Immediately following euthanasia, CSF was collected from the cisterna magna and quickly frozen on dry ice. Samples were stored at −80° C. until quantification of Aβ40 levels.
The measurement of endogenous rat Aβ40 in CSF relied on the 585 antibody (Ab585, BioSource, NONO585), which specifically recognizes the N-terminal sequence of rodent Aβ40, and on the monoclonal antibody, G2-10, which specifically recognizes the free C-terminus of Aβ40. Ab585 was labeled with biotin (b-Ab585) by first dialyzing the antibody sample extensively versus PBS (pH 7.8) to remove impurities, followed by dilution to between 1 and 2 mg/mL protein concentration. EZ-Link Sulfo-NHS-LC-Biotin (Pierce) was dissolved in PBS (pH 7.8) at a concentration of 1 mg/mL immediately prior to use. Ab585 was labeled with EZ-Link Sulfo-NHS-LC-biotin using a 10:1 biotin:antibody ratio by incubation at room temperature for 1 hour. The labeling reaction was quenched by addition of 1.0 M glycine to a final concentration of 0.1 M followed by 10 minute incubation at room temperature. Glycine was removed by extensive dialysis versus PBS.
For rat CSF Aβ40 determinations, a calibration curve of various concentrations of synthetic rodent Aβ40 was assayed in parallel with rat CSF samples in duplicate using an avidin-coated 96-well MSD plate (Mesoscale Diagnostics). Either 50 μL of rodent Aβ40 standards diluted in PBS (pH 7.4) supplemented with 1% BSA and 1% Tween-20 (standard diluent buffer) or 40 μL of standard diluent buffer plus 10 μL rat CSF were added to each 96 well avidin-coated plate. To each well was added 50 μL of 0.1 M HEPES (pH 7.5), 2% BSA, 2% Tween-20, 0.3 M NaCl (2× Aβ40 buffer) supplemented with the b-Ab585 capture and ruthenylated-G2-10 detection antibodies diluted to 1 μg/mL and 0.5 μg/mL, respectively. Plates were shaken for 1 min on a microplate shaker, covered to protect from light and incubated overnight (˜16 h) at 4° C. For detection, plates were first washed twice with 100 μL of 1×CSF Aβ40 buffer followed by addition of 160 μL of 1×MSD read buffer-T (Mesoscale Diagnostics) diluted in 1×CSF Aβ40 buffer. Plates were read on a MSD Sector Imager 2400 model (Mesoscale Diagnosotics). […]

[3] = molecular target: Recombinant human soluble BACE-1 catalytic domain (Homo sapiens (Human), UniProt P56817); experiment: BACE-1 Ki Assay (BACE-1 HTRF FRET Assay); type: biochemical
Sequence of Recombinant human soluble BACE-1 catalytic domain (P56817 75-416): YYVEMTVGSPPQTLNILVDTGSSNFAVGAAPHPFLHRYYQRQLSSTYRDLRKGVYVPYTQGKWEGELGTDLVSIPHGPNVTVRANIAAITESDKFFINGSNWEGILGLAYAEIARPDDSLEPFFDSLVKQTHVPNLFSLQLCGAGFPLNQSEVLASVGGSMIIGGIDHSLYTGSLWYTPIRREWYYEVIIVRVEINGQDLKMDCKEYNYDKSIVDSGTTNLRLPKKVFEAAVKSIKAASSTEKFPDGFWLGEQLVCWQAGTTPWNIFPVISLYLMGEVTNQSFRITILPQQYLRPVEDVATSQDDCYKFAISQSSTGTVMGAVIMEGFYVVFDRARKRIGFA
Protocol: Assay 1: BACE-1 Ki Assay (BACE-1 HTRF FRET Assay)
The compounds of the invention were assessed for their ability to inhibit BACE-1 using the following assay.
The following reagents were used in this assay. Na^+-Acetate pH 5.0; 1% Brij-35; Glycerol; Dimethyl Sulfoxide (DMSO); Recombinant human soluble BACE-1 catalytic domain (>95% pure); APP Swedish mutant peptide substrate (QSY7-APP^swe-Eu): QSY7-EISEVNLDAEFC-Europium-amide.
A homogeneous time-resolved FRET assay can be used to determine IC50 values for inhibitors of the soluble human BACE-1 catalytic domain. This assay monitors the increase of 620 nm fluorescence that resulted from BACE-1 cleavage of an APPswedish APP^swe mutant peptide FRET substrate (QSY7-EISEVNLDAEFC-Europium-amide). This substrate contains an N-terminal QSY7 moiety that serves as a quencher of the C-terminal Europium fluorophore (620 nm Em). In the absence of enzyme activity, 620 nm fluorescence is low in the assay and increased linearly over 3 hours in the presence of uninhibited BACE-1 enzyme. Inhibition of BACE-1 cleavage of the QSY7-APP^swe-Eu substrate by inhibitors is manifested as a suppression of 620 nm fluorescence.
Varying concentrations of inhibitors at 3× the final desired concentration in a volume of 10 ul are preincubated with purified human BACE-1 catalytic domain (3 nM in 10 μl) for 30 minutes at 30° C. in reaction buffer containing 20 mM Na-Acetate pH 5.0, 10% glycerol, 0.1% Brij-35 and 7.5% DSMO. Reactions are initiated by addition of 10 μl of 600 nM QSY7-APP^swe-Eu substrate (200 nM final) to give a final reaction volume of 30 μl in a 384 well Nunc HTRF plate. The reactions are incubated at 30° C. for 1.5 hours. The 620 nm fluorescence is then read on a Rubystar HTRF plate reader (BMG Labtechnologies) using a […] delay followed by a 400 millisecond acquisition time window. Inhibitor IC50 values are derived from non-linear regression analysis of concentration response curves. Ki values are then calculated from IC50 values using the Cheng-Prusoff equation using a previously determined […] of 8 μM for the QSY7-APP^swe-Eu substrate at BACE-1. The example compounds of the invention were measured in this assay.

[4] = Table 2, male CD IGS rats, CSF three hours after administration, percent change vs vehicle cohort
[5] = Table 1, Ki calculated from IC50 with Cheng-Prusoff equation, read-out: BACE1 Ki

CN1C(=N)N[C@](C)(c2cc(Nc3ncnc4cc(C#N)cnc34)ccc2F)CS1(=O)=O [Example 7, 4-({4-fluoro-3-[(5R)-3-imino-2,5-dimethyl-1,1-dioxido-1,2,4-thiadiazinan-5-yl]phenyl}amino)pyrido[3,2-d]pyrimidine-7-carbonitrile]
Ki [1]: 3 nM | change in vivo at 10 mg/kg [2, 4]: -21% | Ki [3, 5]: 3.2 nM | Ki ([3]; Table 2, read-out: BACE1 Ki): 3.2 nM

COc1cccnc1Nc1ccnc([C@]2(C)CS(=O)(=O)N(C)C(=N)N2)c1 [165 (Table XXI), reference compound]
change in vivo at 10 mg/kg ([2]; Table 3, comparator compounds of WO2011044181, rats, CSF at three hours, percent change vs vehicle): -11% | Ki ([3]; Table 3, comparator compounds of WO2011044181, read-out: BACE-1 Ki Nm): 48 nM

CN1C(=N)N[C@](C)(c2cc(Nc3nccc4nc(C(F)F)cnc34)ccc2F)CS1(=O)=O [Example 12, 2-(difluoromethyl)-N-{4-fluoro-3-[(5R)-3-imino-2,5-dimethyl-1,1-dioxido-1,2,4-thiadiazinan-5-yl]phenyl}pyrido[3,4-b]pyrazin-5-amine]
Ki [1]: 1.8 nM | change in vivo at 10 mg/kg [2, 4]: -44% | Ki [3, 5]: 5.2 nM | Ki ([3]; Table 2, read-out: BACE1 Ki): 5.2 nM

CN1C(=N)N[C@](C)(c2c(F)ccc(Nc3nccc4cc(C#N)cnc34)c2F)CS1(=O)=O [Example 11, 8-({2,4-difluoro-3-[(5R)-3-imino-2,5-dimethyl-1,1-dioxido-1,2,4-thiadiazinan-5-yl]phenyl}amino)-1,7-naphthyridine-3-carbonitrile]
Ki [1]: 1.1 nM | change in vivo at 10 mg/kg [2, 4]: -50% | Ki [3, 5]: 2.1 nM | Ki ([3]; Table 2, read-out: BACE1 Ki): 2.1 nM

CN1C(=N)N[C@](C)(c2cc(Nc3nccc4cc(F)cnc34)ccc2F)CS1(=O)=O [Example 8, 3-fluoro-N-{4-fluoro-3-[(5R)-3-imino-2,5-dimethyl-1,1-dioxido-1,2,4-thiadiazinan-5-yl]phenyl}-1,7-naphthyridin-8-amine]
Ki [1]: 0.24 nM | change in vivo at 10 mg/kg [2, 4]: -21% | Ki [3, 5]: 2.1 nM | Ki ([3]; Table 2, read-out: BACE1 Ki): 2.1 nM

COc1cnc2c(Nc3ccc(F)c([C@]4(C)CS(=O)(=O)N(C)C(=N)N4)c3)nccc2n1 [Example 9, N-{4-fluoro-3-[(5R)-3-imino-2,5-dimethyl-1,1-dioxido-1,2,4-thiadiazinan-5-yl]phenyl}-2-methoxypyrido[3,4-b]pyrazin-5-amine]
Ki [1]: 3.5 nM | change in vivo at 10 mg/kg [2, 4]: -68% | Ki [3, 5]: 2.6 nM | Ki ([3]; Table 2, read-out: BACE1 Ki): 2.6 nM

COc1cnc2c(Nc3ccc(F)c([C@]4(C)CS(=O)(=O)N(C)C(=N)N4)c3)ncnc2c1 [Example 14, N-{4-fluoro-3-[(5R)-3-imino-2,5-dimethyl-1,1-dioxido-1,2,4-thiadiazinan-5-yl]phenyl}-7-methoxypyrido[3,2-d]pyrimidin-4-amine]
Ki [1]: 4.4 nM | change in vivo at 10 mg/kg [2, 4]: -55% | Ki [3, 5]: 4.3 nM | Ki ([3]; Table 2, read-out: BACE1 Ki): 4.3 nM

CN1C(=N)N[C@](C)(c2cc(Nc3nccc4cc(C#N)cnc34)ccc2F)CS1(=O)=O [Example 6, 8-({4-fluoro-3-[(5R)-3-imino-2,5-dimethyl-1,1-dioxido-1,2,4-thiadiazinan-5-yl]phenyl}amino)-1,7-naphthyridine-3-carbonitrile]
Ki [1]: 0.46 nM | change in vivo at 10 mg/kg [2, 4]: -50% | Ki [3, 5]: 1.31 nM | Ki ([3]; Table 2, read-out: BACE1 Ki): 1.3 nM

COc1cnc2c(Nc3ccc(F)c([C@]4(C)CS(=O)(=O)N(C)C(=N)N4)c3)nccc2c1 [Example 4, N-{4-fluoro-3-[(5R)-3-imino-2,5-dimethyl-1,1-dioxido-1,2,4-thiadiazinan-5-yl]phenyl}-3-methoxy-1,7-naphthyridin-8-amine]
Ki [1]: 5.8 nM | change in vivo at 10 mg/kg [2, 4]: -45% | Ki [3, 5]: 11.7 nM | Ki ([3]; Table 2, read-out: BACE1 Ki): 12 nM
